The source of these data is US20240342318A1, “CONJUGATES COMPRISING COVALENT BINDERS FOR TARGETING INTRACELLULAR PROTEINS” (RayzeBio, Inc., priority 2021, published 2024).

The target of one test is T1, EGFR (WT) (Homo sapiens, UniProt P00533).
T1 construct: The EGFR constructs span amino acids R669 to V1011 of the EGFR protein; T7 phage display fusion (kinase-tagged T7 phage) or DNA tag for qPCR; made in house; host or cells: E. coli (BL21-derived) infected with T7 phage for most assays; remaining kinases in HEK-293
Nature of the test: In vitro kinase binding assay (phage/DNA-tagged kinase, affinity beads, qPCR), wild-type EGFR. The procedure:
(§1) For most assays, kinase-tagged T7 phage strains were prepared in an E. coli host derived from the BL21 strain. For the EGFR assays, wild-type EGFR, or mutant EGFR (T790M, L858R) were utilized. The EGFR constructs span amino acids R669 to V1011 of the EGFR protein. E. coli were grown to log-phase and infected with T7 phage and incubated with shaking at 32° C. until lysis. The lysates were centrifuged and filtered to remove cell debris. The remaining kinases were produced in HEK-293 cells and subsequently tagged with DNA for qPCR detection. Streptavidin-coated magnetic beads were treated with biotinylated small molecule ligands for 30 minutes at room temperature to generate affinity resins for kinase assays. The liganded beads were blocked with excess biotin and washed with blocking buffer (SeaBlock (Pierce), 1% BSA, 0.05% Tween 20, 1 mM DTT) to remove unbound ligand and to reduce non-specific binding. Binding reactions were assembled by combining kinases, liganded affinity beads, and test compounds in 1× binding buffer (20% SeaBlock, 0.17×PBS, 0.05% Tween 20, 6 mM DTT). Test compounds were prepared as 111× stocks in 100% DMSO. Kds were determined using an 11-point 3-fold compound dilution series with three DMSO control points. All compounds for Kd measurements are distributed by acoustic transfer (non-contact dispensing) in 100% DMSO. The compounds were then diluted directly into the assays such that the final concentration of DMSO was 0.9%. All reactions performed in polypropylene 384-well plate. Each was a final volume of 0.02 ml. The assay plates were incubated at room temperature with shaking for 1 hour and the affinity beads were washed with wash buffer (lx PBS, 0.05% Tween 20). The beads were then re-suspended in elution buffer (lx PBS, 0.05% Tween 20, 0.5 μM nonbiotinylated affinity ligand) and incubated at room temperature with shaking for 30 minutes. The kinase concentration in the eluates was measured by qPCR.

The target of another test is T2, EGFR (L858R, T790M) (Homo sapiens, UniProt P00533, L858R/T790M).
T2 construct: The EGFR constructs span amino acids R669 to V1011 of the EGFR protein; T7 phage display fusion (kinase-tagged T7 phage) or DNA tag for qPCR; made in house; host or cells: E. coli (BL21-derived) infected with T7 phage for most assays; remaining kinases in HEK-293
In words: In vitro kinase binding assay (phage/DNA-tagged kinase, affinity beads, qPCR), mutant EGFR. The note with it: for Binding Affinity ratio of WT/DM: ratio of Kd EGFR (WT) to Kd EGFR (L858R, T790M). On the procedure: as §1

Where [1] appears, read: wild-type EGFR construct R669 to V1011, 11-point 3-fold dilution series, 1 hour at room temperature, read-out: EGFR (WT) Kd.
Where [2] appears, read: mutant EGFR (T790M, L858R) construct R669 to V1011, 11-point 3-fold dilution series, 1 hour at room temperature, read-out: EGFR (L858R, T790M) Kd.

Where two headings read alike, the source gives them in different places. Some results are limits rather than exact numbers.

T1 sequence (P00533 669-1011): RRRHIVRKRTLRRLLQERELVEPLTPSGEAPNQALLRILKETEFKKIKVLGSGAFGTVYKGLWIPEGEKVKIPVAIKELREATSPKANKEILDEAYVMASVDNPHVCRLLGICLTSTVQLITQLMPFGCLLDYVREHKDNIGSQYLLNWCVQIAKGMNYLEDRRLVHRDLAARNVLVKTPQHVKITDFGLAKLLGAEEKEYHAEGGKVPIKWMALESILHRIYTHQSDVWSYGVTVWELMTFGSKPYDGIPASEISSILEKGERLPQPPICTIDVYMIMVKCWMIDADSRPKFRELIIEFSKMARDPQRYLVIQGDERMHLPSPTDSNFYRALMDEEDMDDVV
T2 sequence (P00533 669-1011 T790M/L858R): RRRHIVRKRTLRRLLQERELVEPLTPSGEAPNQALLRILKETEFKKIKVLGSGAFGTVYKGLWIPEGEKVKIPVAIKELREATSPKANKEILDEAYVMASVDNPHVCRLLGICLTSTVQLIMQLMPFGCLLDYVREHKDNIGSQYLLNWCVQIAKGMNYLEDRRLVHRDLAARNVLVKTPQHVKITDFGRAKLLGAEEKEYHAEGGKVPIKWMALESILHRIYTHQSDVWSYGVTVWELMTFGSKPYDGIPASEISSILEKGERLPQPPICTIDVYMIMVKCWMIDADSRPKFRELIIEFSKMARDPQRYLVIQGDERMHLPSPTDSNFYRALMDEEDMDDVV

`C=CC(=O)N[C@@H]1CN(c2nc(Nc3cn(CCCNC(=O)CN4CCN(CC(=O)O)CCN(CC(=O)O)CCN(CC(=O)O)CC4)nc3OC)c3ncn(C)c3n2)C[C@H]1F` [Compound 001, 2-[4,7-bis(carboxymethyl)-10-[2-[3-[4-[[2-[(3R,4R)-3-fluoro-4-(prop-2-enoylamino)pyrrolidin-1-yl]-9-methyl-purin-6-yl]amino]-3-methoxy-pyrazol-1-yl]propylamino]-2-oxo-ethyl]-1,4,7,10-tetrazacyclododec-1-yl]acetic acid]: the Kd is 2 to 100 nM at EGFR (WT) (setting [1]) and under 1 nM at EGFR (L858R, T790M) (setting [2]). For the same compound, the “Binding Affinity ratio of WT/DM” value on EGFR (L858R, T790M) was “A (4 < A ≤ 25)”.
In turn, `C=CC(=O)N[C@@H]1CN(c2nc(Nc3cn(CCCNC(=O)CN4CCN5CCN6CCN(CC4)CC(=O)[O][Lu]([O]C(=O)C5)[O]C(=O)C6)nc3OC)c3ncn(C)c3n2)C[C@H]1F` [Compound 001-Lu, N-[(3R,4R)-4-fluoro-1-[6-[[3-methoxy-1-[3-[[2-(3,16,19-trioxo-2,17,18-trioxa-5,8,11,14-tetraza-1λ3-lutetatricyclo[9.6.3.25,14]docosan-8-yl)acetyl]amino]propyl]pyrazol-4-yl]amino]-9-methyl-purin-2-yl]pyrrolidin-3-yl]prop-2-enamide] came in with a Kd on EGFR (WT) of 2 to 100 nM. For the same compound, on EGFR (L858R, T790M), the Kd was under 1 nM and the “Binding Affinity ratio of WT/DM” value is on record as “A (4 < A ≤ 25)”.
In the case of `C=CC(=O)N[C@@H]1CN(c2nc(Nc3cn(CCCCCNC(=O)CN4CCN(CC(=O)O)CCN(CC(=O)O)CCN(CC(=O)O)CC4)nc3OC)c3ncn(C)c3n2)C[C@H]1F` [Compound 002, 2-[4,7-bis(carboxymethyl)-10-[2-[5-[4-[[2-[(3R,4R)-3-fluoro-4-(prop-2-enoylamino)pyrrolidin-1-yl]-9-methyl-purin-6-yl]amino]-3-methoxy-pyrazol-1-yl]pentylamino]-2-oxo-ethyl]-1,4,7,10-tetrazacyclododec-1-yl]acetic acid], the Kd at EGFR (WT) (setting [1]) is 2 to 100 nM; at EGFR (L858R, T790M) (setting [2]) it was under 1 nM.
As to `C=CC(=O)N[C@@H]1CN(c2nc(Nc3cn(CCCCCNC(=O)CN4CCN5CCN6CCN(CC4)CC(=O)[O][Lu]([O]C(=O)C5)[O]C(=O)C6)nc3OC)c3ncn(C)c3n2)C[C@H]1F` [Compound 002-Lu, N-[(3R,4R)-4-fluoro-1-[6-[[3-methoxy-1-[5-[[2-(3,16,19-trioxo-2,17,18-trioxa-5,8,11,14-tetraza-1λ3-lutetatricyclo[9.6.3.25,14]docosan-8-yl)acetyl]amino]pentyl]pyrazol-4-yl]amino]-9-methyl-purin-2-yl]pyrrolidin-3-yl]prop-2-enamide], the Kd at EGFR (WT) was 2 to 100 nM. Moreover, at EGFR (L858R, T790M), the Kd was under 1 nM and the “Binding Affinity ratio of WT/DM” value is “A (4 < A ≤ 25)”.
On to `C=CC(=O)N[C@@H]1CN(c2nc(Nc3cn(CCCCCCCNC(=O)CN4CCN(CC(=O)O)CCN(CC(=O)O)CCN(CC(=O)O)CC4)nc3OC)c3ncn(C)c3n2)C[C@H]1F` [Compound 003, 2-[4,7-bis(carboxymethyl)-10-[2-[7-[4-[[2-[(3R,4R)-3-fluoro-4-(prop-2-enoylamino)pyrrolidin-1-yl]-9-methyl-purin-6-yl]amino]-3-methoxy-pyrazol-1-yl]heptylamino]-2-oxo-ethyl]-1,4,7,10-tetrazacyclododec-1-yl]acetic acid], for which the dissociation constant Kd on EGFR (WT) (setting [1]) was 2 to 100 nM; on EGFR (L858R, T790M) (setting [2]) it was under 1 nM. Further, the “Binding Affinity ratio of WT/DM” value on EGFR (L858R, T790M) is reported as “A (4 < A ≤ 25)”.
As for `C=CC(=O)N[C@@H]1CN(c2nc(Nc3cn(CCCCCCCNC(=O)CN4CCN5CCN6CCN(CC4)CC(=O)[O][Lu]([O]C(=O)C5)[O]C(=O)C6)nc3OC)c3ncn(C)c3n2)C[C@H]1F` [Compound 003-Lu, N-[(3R,4R)-4-fluoro-1-[6-[[3-methoxy-1-[7-[[2-(3,16,19-trioxo-2,17,18-trioxa-5,8,11,14-tetraza-1λ3-lutetatricyclo[9.6.3.25,14]docosan-8-yl)acetyl]amino]heptyl]pyrazol-4-yl]amino]-9-methyl-purin-2-yl]pyrrolidin-3-yl]prop-2-enamide], the Kd at EGFR (WT) is 2 to 100 nM; at EGFR (L858R, T790M), under 1 nM. Besides, the “Binding Affinity ratio of WT/DM” value on EGFR (L858R, T790M) is given as “A (4 < A ≤ 25)”.
On to `C=CC(=O)N[C@@H]1CN(c2nc(Nc3cn(CCCCCNC(=O)CN4CCN(CC(=O)O)CCN(CC(=O)O)CCN(CC(=O)O)CC4)nc3OC)c3ncn(C(C)(C)C)c3n2)C[C@H]1F` [Compound 004, 2-[4-[2-[5-[4-[[9-tert-butyl-2-[(3R,4R)-3-fluoro-4-(prop-2-enoylamino)pyrrolidin-1-yl]purin-6-yl]amino]-3-methoxy-pyrazol-1-yl]pentylamino]-2-oxo-ethyl]-7,10-bis(carboxymethyl)-1,4,7,10-tetrazacyclododec-1-yl]acetic acid], for which the Kd on EGFR (WT) (setting [1]) is 100 to 1000 nM; on EGFR (L858R, T790M) (setting [2]), 1 to 25 nM. For the same compound, the “Binding Affinity ratio of WT/DM” value at EGFR (L858R, T790M) was “B (25 < B ≤ 100)”.
With `C=CC(=O)N[C@@H]1CN(c2nc(Nc3cn(CCCCCNC(=O)CN4CCN5CCN6CCN(CC4)CC(=O)[O][Lu]([O]C(=O)C5)[O]C(=O)C6)nc3OC)c3ncn(C(C)(C)C)c3n2)C[C@H]1F` [Compound 004-Lu, N-[(3R,4R)-1-[9-tert-butyl-6-[[3-methoxy-1-[5-[[2-(3,16,19-trioxo-2,17,18-trioxa-5,8,11,14-tetraza-1λ3-lutetatricyclo[9.6.3.25,14]docosan-8-yl)acetyl]amino]pentyl]pyrazol-4yl]amino]purin-2-yl]-4-fluoro-pyrrolidin-3-yl]prop-2-enamide], the Kd on EGFR (WT) lay in the range of 2 to 100 nM. At EGFR (L858R, T790M), the Kd is under 1 nM and the “Binding Affinity ratio of WT/DM” value is “B (25 < B ≤ 100)”.
As for `C=CC(=O)N[C@@H]1CN(c2nc(Nc3cn(CCCCCNC(=O)CN4CCN(CC(=O)O)CCN(CC(=O)O)CCN(CC(=O)O)CC4)nc3CC)c3ncn(C(C)(C)C)c3n2)C[C@H]1F` [Compound 005, 2-[4-[2-[5-[4-[[9-tert-butyl-2-[(3R,4R)-3-fluoro-4-(prop-2-enoylamino)pyrrolidin-1-yl]purin-6-yl]amino]-3-ethyl-pyrazol-1-yl]pentylamino]-2-oxo-ethyl]-7,10-bis(carboxymethyl)-1,4,7,10-tetrazacyclododec-1-yl]acetic acid], the Kd at EGFR (WT) (setting [1]) fell in the range of 1000 to 2500 nM; at EGFR (L858R, T790M) (setting [2]), 1 to 25 nM. Also, on EGFR (L858R, T790M), the “Binding Affinity ratio of WT/DM” value is reported as “C (100 < C ≤ 1000)”.
`C=CC(=O)N[C@@H]1CN(c2nc(Nc3cn(CCCCCNC(=O)CN4CCN5CCN6CCN(CC4)CC(=O)[O][Lu]([O]C(=O)C5)[O]C(=O)C6)nc3CC)c3ncn(C(C)(C)C)c3n2)C[C@H]1F` [Compound 005-Lu, N-[(3R,4R)-1-[9-tert-butyl-6-[[3-ethyl-1-[5-[[2-(3,16,19-trioxo-2,17,18-trioxa-5,8,11,14-tetraza-1λ3-lutetatricyclo[9.6.3.25,14]docosan-8-yl)acetyl]amino]pentyl]pyrazol-4-yl]amino]purin-2-yl]-4-fluoro-pyrrolidin-3-yl]prop-2-enamide] came in with a Kd on EGFR (WT) of 1000 to 2500 nM. Further, on EGFR (L858R, T790M), the Kd was in the range of 1 to 25 nM and the “Binding Affinity ratio of WT/DM” value was “C (100 < C ≤ 1000)”.
In the case of `C=CC(=O)N[C@@H]1CN(c2nc(Nc3cn(CCCCCNC(=O)CN4C[C@H](CC)N(CC(=O)O)C[C@H](CC)N(CC(=O)O)C[C@H](CC)N(CC(=O)O)C[C@@H]4CC)nc3CC)c3ncn(C(C)(C)C)c3n2)C[C@H]1F` [Compound 006, 2,2′,2″-((2S,5S,8S,11S)-10-(2-((5-(4-((2-((3R,4R)-3-acrylamido-4-fluoropyrrolidin-1-yl)-9-(tert-butyl)-9H-purin-6-yl)amino)-3-ethyl-1H-pyrazol-1-yl)pentyl)amino)-2-oxoethyl)-2,5,8,11-tetraethyl-1,4,7,10-tetraazacyclododecane-1,4,7-triyl)triacetic acid], the Kd lay in the range of 1000 to 2500 nM on EGFR (WT) (setting [1]) and 1 to 25 nM on EGFR (L858R, T790M) (setting [2]). In addition, the “Binding Affinity ratio of WT/DM” value on EGFR (L858R, T790M) is listed as “B (25 < B ≤ 100)”.
On to `C=CC(=O)N1C[C@H](COc2nc(Nc3cnn(CCCCCNC(=O)CN4CCN(CC(=O)O)CCN(CC(=O)O)CCN(CC(=O)O)CC4)c3)nc3[nH]cc(Cl)c23)[C@@H](OC)C1` [Compound 007, 2,2′,2″-(10-(2-((5-(4-((4-(((3R,4R)-1-acryloyl-4-methoxypyrrolidin-3yl)methoxy)-5-chloro-7H-pyrrolo[2,3-d]pyrimidin-2-yl)amino)-1H-pyrazol-1-yl)pentyl)amino)-2-oxoethyl)-1,4,7,10-tetraazacyclododecane-1,4,7-triyl)triacetic acid], for which the Kd on EGFR (WT) (setting [1]) is 100 to 1000 nM; at EGFR (L858R, T790M) (setting [2]), 1 to 25 nM. Further, the “Binding Affinity ratio of WT/DM” value on EGFR (L858R, T790M) is “C (100 < C ≤ 1000)”.
